The subject of one assay is ER stress. The assay can be described thus: ER stress, tau kinase and apoptosis markers after blast-induced TBI (western blot, immunohistochemistry, PCR). The assay is classed as in vivo, Sprague Dawley rat. On the procedure:
An animal model was used to evaluate TBI, and neuropathological specimens (donated by the Brain Injury Research Institute brain bank) were used to evaluate CTE. TBI was blast induced in the animal model. […] Salubrinal was administered to the animal model following the injury. The ER stress was modulated by the use of salubrinal. […] This example assessed the successful targeting of ER stress after TBI. […] A Sprague Dawley rat was positioned in a protective tube to prevent injury to the peripheral organs, and an acceleration wave was generated and allowed to collide with the skull of the rat. The intensity of the injury was adjusted in a step-wise manner by decreasing or increasing the thickness of the membrane that exploded with pressurized nitrogen gas. An injury paradigm of 50 PSI was selected, which correlates with human concussion, that is the most common type of injury linked to CTE. In FIG. 4, the peak in plot D illustrates the 50 PSI pressure wave. The Sprague Dawley rats were given either one injury, or six injuries over a two-week period. Various time points of sacrifice were chosen to look at markers of ER stress and tauopathy. Salubrinal was administered to the rats after injury to target ER stress. Salubrinal was administered by IP injection 30 minutes after injury using a dose of 1 mg/kg. […] Salubrinal-mediated CHOP reduction may be associated with preservation of the pro-form of Caspase-12 that when cleaved, has been associated with ER-mediated apoptosis or cell death. Reducing CHOP with salubrinal also may result in reduction of sustained oxidative stress and neuro-inflammation. LICOR western blot protocols, IHC world immunohistochemistry protocols, and Applied Biosystems PCR protocols were used for the assays. ANOVA was used for analysis with p<0.05 being statistically significant. *=p<0.05, **=p<0.01, ***=p<0.001. When the drug group was compared to the injury group #=p<0.05, ##=p<0.01, ###=p<0.001.
Background: Immunoblotting shows a protein as a band on a membrane.

A further assay deals with oxidative stress. The assay can be described thus: Oxidative stress markers after blast injury. The assay is classed as in vivo, Sprague Dawley rat. The source says:
This example assessed the successful targeting of ER stress after TBI. […] A Sprague Dawley rat was positioned in a protective tube to prevent injury to the peripheral organs, and an acceleration wave was generated and allowed to collide with the skull of the rat. The intensity of the injury was adjusted in a step-wise manner by decreasing or increasing the thickness of the membrane that exploded with pressurized nitrogen gas. An injury paradigm of 50 PSI was selected, which correlates with human concussion, that is the most common type of injury linked to CTE. In FIG. 4, the peak in plot D illustrates the 50 PSI pressure wave. The Sprague Dawley rats were given either one injury, or six injuries over a two-week period. Various time points of sacrifice were chosen to look at markers of ER stress and tauopathy. Salubrinal was administered to the rats after injury to target ER stress. Salubrinal was administered by IP injection 30 minutes after injury using a dose of 1 mg/kg. […] Salubrinal-mediated CHOP reduction may be associated with preservation of the pro-form of Caspase-12 that when cleaved, has been associated with ER-mediated apoptosis or cell death. Reducing CHOP with salubrinal also may result in reduction of sustained oxidative stress and neuro-inflammation. LICOR western blot protocols, IHC world immunohistochemistry protocols, and Applied Biosystems PCR protocols were used for the assays. ANOVA was used for analysis with p<0.05 being statistically significant. *=p<0.05, **=p<0.01, ***=p<0.001. When the drug group was compared to the injury group #=p<0.05, ##=p<0.01, ###=p<0.001. […] Measured components included carbonyls (plot A), superoxide (plot B), reactive oxygen species (ROS) (plot C), and NADPH oxidase 4 (NOX4) (plot D). As shown in A, B and […], administration of salubrinal (sTBI+SAL) reduced protein carbonyls, super-oxides, and total oxidative stress production, respectively.

The next assay relates to neuroinflammation. The experiment in a line: Neuroinflammation markers after blast injury. The assay is classed as in vivo, Sprague Dawley rat. The source says:
This example assessed the successful targeting of ER stress after TBI. […] A Sprague Dawley rat was positioned in a protective tube to prevent injury to the peripheral organs, and an acceleration wave was generated and allowed to collide with the skull of the rat. The intensity of the injury was adjusted in a step-wise manner by decreasing or increasing the thickness of the membrane that exploded with pressurized nitrogen gas. An injury paradigm of 50 PSI was selected, which correlates with human concussion, that is the most common type of injury linked to CTE. In FIG. 4, the peak in plot D illustrates the 50 PSI pressure wave. The Sprague Dawley rats were given either one injury, or six injuries over a two-week period. Various time points of sacrifice were chosen to look at markers of ER stress and tauopathy. Salubrinal was administered to the rats after injury to target ER stress. Salubrinal was administered by IP injection 30 minutes after injury using a dose of 1 mg/kg. […] Salubrinal-mediated CHOP reduction may be associated with preservation of the pro-form of Caspase-12 that when cleaved, has been associated with ER-mediated apoptosis or cell death. Reducing CHOP with salubrinal also may result in reduction of sustained oxidative stress and neuro-inflammation. LICOR western blot protocols, IHC world immunohistochemistry protocols, and Applied Biosystems PCR protocols were used for the assays. ANOVA was used for analysis with p<0.05 being statistically significant. *=p<0.05, **=p<0.01, ***=p<0.001. When the drug group was compared to the injury group #=p<0.05, ##=p<0.01, ###=p<0.001. […] Measured components included NF kappa B (plot A), inducible nitric oxide synthase (iNOS) (plot B), interleukin 1 beta (IL-1β) (plot C), and tumor necrosis factor alpha (TNFα) (plot D). As shown in plots A, C and D, salubrinal administration (sTBI+SAL) reduced pro-inflammatory markers NFκB, IL-1β and TNFα, respectively.

The subject of assay [1] is Sprague Dawley rat. The experiment in a line: Elevated plus maze after blast injury (impulsive-like behavior). The assay is classed as in vivo. The procedure:
(§1) The administration of salubrinal prior to bTBI was also evaluated in an animal model. Use of the salubrinal ameliorated neuropsychiatric deficits in the form of impulsive-like behavior as measured by the elevated plus maze test/protocol, and spatial memory as measured by the Morris water maze test/protocol. This example assessed the successful targeting of ER stress after TBI. […] A Sprague Dawley rat was positioned in a protective tube to prevent injury to the peripheral organs, and an acceleration wave was generated and allowed to collide with the skull of the rat. The intensity of the injury was adjusted in a step-wise manner by decreasing or increasing the thickness of the membrane that exploded with pressurized nitrogen gas. An injury paradigm of 50 PSI was selected, which correlates with human concussion, that is the most common type of injury linked to CTE. In FIG. 4, the peak in plot D illustrates the 50 PSI pressure wave. The Sprague Dawley rats were given either one injury, or six injuries over a two-week period. Various time points of sacrifice were chosen to look at markers of ER stress and tauopathy. In this example, the effect of targeting (turning off) ER stress on improved behavior was studied by utilizing the injury models and standard protocols for Morris water maze and elevated plus maze. The Morris water maze detected deficits in cognitive performance whereas the elevated plus maze evaluated impulsive-like behavior. […] ANOVA was used for statistical analysis with *=p<0.05, **=p<0.01, ***=p<0.001. When drug was compared to injury group #=p<0.05, ##=p<0.01, ###=p<0.001.

For assay [2], the system named is Sprague Dawley rat. The experiment in a line: Morris water maze after blast injury (cognitive performance). Format: in vivo. The procedure:
as §1

[3] abbreviates: bTBI animal model, administered following the injury.
Where [4] appears, read: post-blast administration (FIG. 6).

“Also recorded” adds a separate entry of the source.

With `O=C(/C=C/c1ccccc1)NC(NC(=S)Nc1cccc2cccnc12)C(Cl)(Cl)Cl` (stereo not drawn) [salubrinal, 3-phenyl-N-[2,2,2-trichloro-1-[[(8-quinolinylamino)thioxomethyl]amino]ethyl]-2-propenamide], in the assay with ER stress (1 mg/kg IP 30 minutes after injury), the GSK3β activity entry is “reduced”. The “CHOP (marker of ER stress)” value in the assay with ER stress (1 mg/kg IP 30 minutes after injury, 24 hours after a single blast injury (FIG. 5 plot C)) is “prevented the surge; also recorded: significantly reduced”. Besides, in the assay with ER stress (1 mg/kg IP 30 minutes after injury, 24 hours after a single blast injury (FIG. 5 plot E)), the “GADD34 (marker of ER stress)” value is “inhibited; also recorded: significantly reduced”. Further, in the assay on ER stress (setting [3]), the ER stress entry is recorded as “modulated”; the “markers of neural degeneration and apoptosis” value is given as “reducing”. In the assay on ER stress (setting [4]), the CHOP by immunohistochemistry result is on record as “significantly reduced” and the “cleaved Caspase 3 (pro-apoptotic marker) by immunohistochemistry” value is “reduced”. Also, in the assay on oxidative stress (24 hours after injury (FIG. 7 plot A)), the protein carbonyls result is reported as “reduced”. Also, the super-oxides entry in the assay with oxidative stress (24 hours after injury (FIG. 7 plot B)) is on record as “reduced”. For the same molecule, the “total oxidative stress production” value with oxidative stress (24 hours after injury (FIG. 7 plot D)) was “reduced”. Besides, the “NFκB (pro-inflammatory marker)” value with neuroinflammation (24 hours after injury (FIG. 8 plot A)) is listed as “reduced”. Moreover, in the assay on neuroinflammation (24 hours after injury (FIG. 8 plot C)), the “IL-1β (pro-inflammatory marker)” value is “reduced”. Moreover, the “TNFα (pro-inflammatory marker)” value in the assay on neuroinflammation (24 hours after injury (FIG. 8 plot D)) was “reduced”. Also, in the assay on Sprague Dawley rat [1] (administered after injury, 72 hours after the repeat injury (FIG. 12)), the “impulsive-like behavior, time spent in the open arm of the elevated plus maze” value is listed as “reduced”. Further, in the assay on Sprague Dawley rat [1] (administered after injury, seven days after a single injury (FIG. 11)), the “impulsive-like behavior, time in the open arm of the elevated plus maze” value is “reduced”. Moreover, the “neuropsychiatric deficits: impulsive-like behavior, elevated plus maze” value in the assay on Sprague Dawley rat [1] (administered prior to bTBI) was “ameliorated”. The “neuropsychiatric deficits: spatial memory, Morris water maze” value with Sprague Dawley rat [2] (administered prior to bTBI) is reported as “ameliorated”.
In the case of `CC/C=C\C/C=C\C/C=C\C/C=C\C/C=C\C/C=C\CCC(=O)O` [DHA], the “ER stress activator BiP” value in the assay on ER stress (three weeks following repetitive injury (FIG. 10 plot A)) is listed as “inhibited”. In the assay with ER stress (three weeks following repetitive injury (FIG. 10 plot B)), the “tau kinase GSK3β” value is listed as “inhibited”. Further, the “cognitive learning, Morris water maze” value with Sprague Dawley rat [2] (after injury (FIG. 13 panel D)) is recorded as “improved”. In addition, the “retention of a learned event, probe trial” value in the assay on Sprague Dawley rat [2] (after injury (FIG. 13 panel E)) is “enhanced”.

(Values after US20200016145A1, “TREATMENT OF CHRONIC TRAUMATIC ENCEPHALOPATHY” (CTEC LLC, priority 2018, published 2020).)
